Experimental data taken from patent US10716869B2, “Radiolabeled macrocyclic EGFR inhibitor” (Oncodesign SA, priority 2016, dated 2020).
Converted amounts (≈) assume the structure as drawn. “And” between values parts separate entries of the source, which are not always exact repeats. Equal entries are not always repeated. Where two headings read alike, the source gives them in different places.

Legend:
[1] = target: T1, EGFR L858R (human, 672-1210) (Homo sapiens, UniProt P00533, L858R); assay: radiometric protein kinase assay (33PanQinase Activity Assay); details: Tests 1-3 are repeat determinations; read-out: Biochemical IC50 EGFR L858R
T1 construct: (human, 672-1210)
Method: (§1) The compounds were tested in 100% DMSO, all recombinant protein kinases and substrates with respective concentration are described in table 1.

[2] = target: T2, EGFR T790M/L858R (human, 672-1210) (Homo sapiens, UniProt P00533, L858R/T790M); assay: as above; details: Tests 1-3 are repeat determinations; read-out: Biochemical IC50 EGFR L858R/T790M
T2 construct: (human, 672-1210)
Method: as §1

[3] = target: T3, EGFR wt (human, 672-1210) (Homo sapiens, UniProt P00533); assay: as above; details: Tests 1-3 are repeat determinations; read-out: Biochemical IC50 EGFR WT (activated)
T3 construct: (human, 672-1210)
Method: as §1

T790M (EGFR mutant) = T790M (EGFR mutant) (Homo sapiens, UniProt P00533, L858R/T790M); assay: as above; details: Test 1; read-out: Biochemical IC50 T790M
Method: A radiometric protein kinase assay (^33PanQinase® Activity Assay) was used for measuring the biochemical kinase activity of 3 protein kinases, EGFR wild-type and 2 EGFR mutants (L858R, L858R/T790M). The compounds were tested in 100% DMSO, all recombinant protein kinases and substrates with respective concentration are described in table 1.

NCI-H3255 (EGFR_L858R) = assay: MTS cell viability assay, 72 hours; format: cell-based, Human
Method: (§2) The cell lines that were used to assay the cellular activity of the compounds are detailed in table 3 hereafter:
(§3) Tumor cells grew as monolayer at 37° C. in a humidified atmosphere (5% CO2) in complete culture medium adapted to each cell line. The cellular activity of the compounds was assessed by measuring the viability of cancer cell in MTS assay using a tetrazolium compound (MTS, 3-(4,5-dimethylthiazol-2-yl)-5-(3-carboxymethoxy phenyl)-2-(4-sulfophenyl)-2H-tetrazolium) and an electron coupling reagent named PMS (phenazine methosulfate). MTS is bioreduced by cells into a formazan product that is directly soluble in culture medium without processing. The cells were seeded 24 hours before treatment at the appropriate density in their culture medium to be near 90% of confluence at the end of experiment in vehicle treated conditions. After addition of compounds, the cells were incubated for 72 hours.

NCI-H441 (EGFR WT) = assay: MTS cell viability assay, 72 hours; format: cell-based, Human; details: read-out: Cellular IC50 NCI-H441 (EGFR WT)
Method: as §2, §3

[4] = tested on: panel of 92 wild-type kinases; assay: kinase selectivity, residual activity at 100 nM and 1 μM; details: for selectivity score S(50): 92 wild-type kinases
From the text: Corresponding kinases and substrates were always tested at the ATP Km concentration.

MCF-7 = assay: MTS cell viability assay, 72 hours; format: cell-based; details: Homo sapiens, MCF7, 72 h, negative control, does not express EGFR, read-out: Cellular IC50 MCF-7
Method: as §2, §3

[5] = tested on: NCI-H1975 (EGFR L858R/T790M); assay: MTS cell viability assay, 72 hours; format: cell-based; details: Homo sapiens, NCI-H1975, 72 h, read-out: Cellular IC50 NCI-H1975 (EGFR L858R/T790M)
Method: as §2, §3

[6] = kinetic solubility in PBS at pH 7.4; format: physicochemical; details: pH 7.4, aqueous buffer, kinetic from dmso stock
Method: The kinetic solubility of the compounds was assessed in PBS at pH 7.4.

[7] = metabolic microsomal stability, human liver microsomes; format: in vitro ADME; details: pH 7.4, 0.5 mg/mL protein
Method: (§4) Metabolic microsomal stability was performed on human and rat liver microsomes. Microsomes (final protein concentration 0.5 mg/mL), 0.1 M phosphate buffer pH 7.4 and test compound (final substrate concentration=3 μM; final DMSO concentration=0.25%) are pre-incubated at 37° C. prior to the addition of NADPH (final concentration=1 mM) to initiate the reaction. Analysis is done with generic LC-MS/MS conditions to determine half-life and intrinsic clearance using standard equations. […] In human, Compound (Ia) metabolic stability was better than in rat and favorable for clinical studies.

[8] = metabolic microsomal stability, rat liver microsomes; format: in vitro ADME; details: pH 7.4, 0.5 mg/mL protein
Method: as §4

WT NCI-H441 tumors = assay: in vivo specificity: competition for uptake of Compound (I); set-up: species or system rats; details: gefitinib 2 mg/rat or Compound (Ia) 1 mg/rat
[9] = tested on: NCI-H3255 tumors (simple mutation); assay: as above; set-up: species or system rats; details: gefitinib 2 mg/rat or Compound (Ia) 1 mg/rat
[10] = tested on: NCI-H1975 tumors (double mutation); assay: as above; set-up: species or system rats; details: gefitinib 2 mg/rat or Compound (Ia) 1 mg/rat
[11] = target: EGFR phosphorylation in NCI-H441 (Homo sapiens, UniProt P00533); assay: EGFR Y1068 phosphorylation, Western blot; details: NCI-H441, 10 ng/ml EGF
[12] = target: constitutively active EGFR in NCI-H3255 (Homo sapiens, UniProt P00533, L858R); assay: EGFR Y1068 phosphorylation, Western blot
[13] = target: double mutant EGFR expressed by NCI-H1975 (Homo sapiens, UniProt P00533, L858R/T790M); assay: EGFR Y1068 phosphorylation, Western blot
[14] = biodistribution by ex vivo γ-counting in Sprague Dawley rats
Method: To evaluate the biodistribution of the pure S (II) and R (III) enantiomers compared to compound (I), dynamic PET scan imaging and ex vivo gamma counting were performed on Sprague Dawley rats. Animals were injected with the radiotracer solution diluted in NaCl 0.9% to prepare a solution of activity 4-6 MBq (gamma-counting experiments) or 11-13 MBq (PET imaging experiments) in a volume of 300-400 or 600-800 μL, respectively. Radioactivity content in all biological samples was determined with scintillation γ-counter (Cobra 4180, Perkin-Elmer Inc.).
At the light of the biodistribution data of compound (I), the biodistribution of the R (III)- and S (II)-enantiomers was assessed by γ-counting in the organs in which the accumulation of compound (I) was prominent (that is: blood, heart, kidneys, liver, stomach, small intestine and colon). Two timepoints were selected: 5 and 30 minutes post-injection. […] The higher uptakes of R enantiomer (III) and S enantiomer (II) in these organs were expected to be observed at early timepoints after injection, giving the highest signals in the γ-counter and therefore making the comparison of biodistribution data more relevant. Besides, as PET images were acquired with compound (I), PET imaging was included in the evaluation of the biodistribution of R enantiomer and S enantiomer. This gave the opportunity to had one additional timepoint at 4 hours post-injection for collection of major organs and determination of radioactivity content by ex vivo γ-counting.

[15] = Homo sapiens, NCI-H3255, 72 h, read-out: Cellular IC50 NCI-H3255 (EGFR_L858R)

T1 sequence (P00533 672-1210 L858R): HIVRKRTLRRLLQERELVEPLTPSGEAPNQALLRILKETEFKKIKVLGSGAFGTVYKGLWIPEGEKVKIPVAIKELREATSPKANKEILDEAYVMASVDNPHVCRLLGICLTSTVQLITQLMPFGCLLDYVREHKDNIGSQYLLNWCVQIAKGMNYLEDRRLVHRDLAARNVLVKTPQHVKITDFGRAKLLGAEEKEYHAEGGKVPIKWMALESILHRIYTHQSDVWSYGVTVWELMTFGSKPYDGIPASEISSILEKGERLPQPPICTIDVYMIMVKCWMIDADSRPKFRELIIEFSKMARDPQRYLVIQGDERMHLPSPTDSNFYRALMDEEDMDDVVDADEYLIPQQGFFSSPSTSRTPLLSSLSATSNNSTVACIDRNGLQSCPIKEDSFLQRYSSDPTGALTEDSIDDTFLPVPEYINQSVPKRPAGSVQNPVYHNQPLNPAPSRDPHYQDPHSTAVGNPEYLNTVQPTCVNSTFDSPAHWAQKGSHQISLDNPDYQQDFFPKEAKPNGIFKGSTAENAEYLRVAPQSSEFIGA
T2 sequence (P00533 672-1210 T790M/L858R): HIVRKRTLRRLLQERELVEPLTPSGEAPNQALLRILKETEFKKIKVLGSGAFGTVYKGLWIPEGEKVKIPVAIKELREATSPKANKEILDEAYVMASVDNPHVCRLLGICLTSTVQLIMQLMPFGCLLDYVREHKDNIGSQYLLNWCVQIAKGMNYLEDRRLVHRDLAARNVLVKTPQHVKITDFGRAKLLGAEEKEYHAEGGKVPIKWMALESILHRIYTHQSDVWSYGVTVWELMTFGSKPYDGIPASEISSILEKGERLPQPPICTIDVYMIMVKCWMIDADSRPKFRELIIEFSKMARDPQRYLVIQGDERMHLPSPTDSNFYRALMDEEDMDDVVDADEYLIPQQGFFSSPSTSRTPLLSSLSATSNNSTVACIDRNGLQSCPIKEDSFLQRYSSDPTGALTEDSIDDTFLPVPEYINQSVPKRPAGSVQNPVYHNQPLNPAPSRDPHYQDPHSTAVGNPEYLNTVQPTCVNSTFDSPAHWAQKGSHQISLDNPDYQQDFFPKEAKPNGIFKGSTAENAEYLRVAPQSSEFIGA
T3 sequence (P00533 672-1210): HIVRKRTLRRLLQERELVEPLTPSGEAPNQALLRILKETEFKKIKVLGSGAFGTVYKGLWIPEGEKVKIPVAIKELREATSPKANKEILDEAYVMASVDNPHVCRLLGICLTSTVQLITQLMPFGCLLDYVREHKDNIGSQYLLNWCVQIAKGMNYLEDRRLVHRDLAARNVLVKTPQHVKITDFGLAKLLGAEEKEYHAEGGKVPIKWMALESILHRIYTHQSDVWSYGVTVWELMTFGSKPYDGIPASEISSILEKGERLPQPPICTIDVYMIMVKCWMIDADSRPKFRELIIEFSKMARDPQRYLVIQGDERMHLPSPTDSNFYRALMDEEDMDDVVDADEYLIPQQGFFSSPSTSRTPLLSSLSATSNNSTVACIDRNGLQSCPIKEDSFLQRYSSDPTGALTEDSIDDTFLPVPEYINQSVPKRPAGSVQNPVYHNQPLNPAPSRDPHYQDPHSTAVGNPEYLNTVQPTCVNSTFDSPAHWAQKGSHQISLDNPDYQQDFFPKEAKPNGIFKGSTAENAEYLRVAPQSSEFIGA
T790M (EGFR mutant), sequence (P00533 672-1210 T790M/L858R): as the sequence (P00533 672-1210 T790M/L858R) above
double mutant EGFR expressed by NCI-H1975, sequence (P00533 25-1210 T790M/L858R): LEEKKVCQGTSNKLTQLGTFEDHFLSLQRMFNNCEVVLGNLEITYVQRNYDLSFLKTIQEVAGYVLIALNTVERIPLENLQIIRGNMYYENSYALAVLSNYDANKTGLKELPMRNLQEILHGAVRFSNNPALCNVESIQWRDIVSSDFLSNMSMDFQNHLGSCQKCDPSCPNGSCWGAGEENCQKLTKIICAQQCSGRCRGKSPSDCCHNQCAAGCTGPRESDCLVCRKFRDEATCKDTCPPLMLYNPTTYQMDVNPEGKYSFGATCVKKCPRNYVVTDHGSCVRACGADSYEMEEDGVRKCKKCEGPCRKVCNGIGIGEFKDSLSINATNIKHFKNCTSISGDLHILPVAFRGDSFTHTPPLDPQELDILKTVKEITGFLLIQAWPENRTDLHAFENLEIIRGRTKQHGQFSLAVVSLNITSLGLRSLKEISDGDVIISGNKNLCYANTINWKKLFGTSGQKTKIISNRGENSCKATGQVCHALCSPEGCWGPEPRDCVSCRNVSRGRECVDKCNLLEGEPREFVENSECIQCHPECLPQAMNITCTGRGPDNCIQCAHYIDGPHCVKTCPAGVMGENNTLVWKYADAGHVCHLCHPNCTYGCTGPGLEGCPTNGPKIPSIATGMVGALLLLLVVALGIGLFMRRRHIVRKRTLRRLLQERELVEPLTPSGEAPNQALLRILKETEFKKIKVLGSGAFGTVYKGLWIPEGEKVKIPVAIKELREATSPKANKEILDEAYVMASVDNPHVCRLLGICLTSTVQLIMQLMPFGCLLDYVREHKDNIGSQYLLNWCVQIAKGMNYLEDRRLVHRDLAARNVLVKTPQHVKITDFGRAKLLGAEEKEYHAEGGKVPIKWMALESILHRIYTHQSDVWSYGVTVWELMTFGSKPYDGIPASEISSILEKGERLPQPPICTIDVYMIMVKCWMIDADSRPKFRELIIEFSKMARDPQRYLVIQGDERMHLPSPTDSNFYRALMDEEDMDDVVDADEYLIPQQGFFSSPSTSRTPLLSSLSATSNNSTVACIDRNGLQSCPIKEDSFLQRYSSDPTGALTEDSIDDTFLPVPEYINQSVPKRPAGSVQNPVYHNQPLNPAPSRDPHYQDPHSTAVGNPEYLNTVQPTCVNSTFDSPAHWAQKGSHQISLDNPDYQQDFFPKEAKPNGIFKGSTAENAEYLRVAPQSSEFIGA
EGFR phosphorylation in NCI-H441, sequence (P00533 25-1210): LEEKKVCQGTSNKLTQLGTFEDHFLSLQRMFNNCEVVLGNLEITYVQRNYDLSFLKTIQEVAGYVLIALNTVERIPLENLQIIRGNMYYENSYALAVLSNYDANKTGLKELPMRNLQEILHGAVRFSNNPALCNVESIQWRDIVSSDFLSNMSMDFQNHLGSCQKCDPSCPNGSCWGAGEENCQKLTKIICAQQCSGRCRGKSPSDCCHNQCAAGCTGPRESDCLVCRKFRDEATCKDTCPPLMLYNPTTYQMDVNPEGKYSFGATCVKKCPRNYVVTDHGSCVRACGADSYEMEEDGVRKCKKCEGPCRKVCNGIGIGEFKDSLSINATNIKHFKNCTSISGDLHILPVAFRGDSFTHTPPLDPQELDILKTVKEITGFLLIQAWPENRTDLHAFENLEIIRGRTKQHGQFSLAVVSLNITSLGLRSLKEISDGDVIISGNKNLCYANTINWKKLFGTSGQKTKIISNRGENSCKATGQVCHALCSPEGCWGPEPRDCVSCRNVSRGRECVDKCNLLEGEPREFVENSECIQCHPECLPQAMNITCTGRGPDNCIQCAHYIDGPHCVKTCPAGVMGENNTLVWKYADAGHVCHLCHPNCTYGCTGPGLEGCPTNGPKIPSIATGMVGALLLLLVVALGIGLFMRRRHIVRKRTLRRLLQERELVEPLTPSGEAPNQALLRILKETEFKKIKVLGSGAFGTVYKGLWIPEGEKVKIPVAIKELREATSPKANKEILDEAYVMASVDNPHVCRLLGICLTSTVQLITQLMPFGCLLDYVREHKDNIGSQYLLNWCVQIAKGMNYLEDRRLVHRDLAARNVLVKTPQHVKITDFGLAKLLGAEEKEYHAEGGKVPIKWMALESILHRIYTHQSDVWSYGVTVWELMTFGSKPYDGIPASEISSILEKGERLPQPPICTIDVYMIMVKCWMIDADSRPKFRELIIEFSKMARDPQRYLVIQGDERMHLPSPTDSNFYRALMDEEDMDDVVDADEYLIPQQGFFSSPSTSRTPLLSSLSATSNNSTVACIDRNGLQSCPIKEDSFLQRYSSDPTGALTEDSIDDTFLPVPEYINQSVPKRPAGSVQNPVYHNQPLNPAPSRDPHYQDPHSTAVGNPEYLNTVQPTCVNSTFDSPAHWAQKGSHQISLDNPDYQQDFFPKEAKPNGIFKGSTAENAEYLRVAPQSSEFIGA

## CC(C)[C@@H]1NC(=O)Cc2ccc(Cl)cc2Nc2ncnc3cc(OCCF)c(cc23)OCCCNC1=O [Compound (IIa)]
[1]
  IC50: < 10 nM and 6.3 nM
[2]
  IC50: 924 nM
[3]
  IC50: < 10 nM and 5.9 nM
T790M (EGFR mutant)
  IC50: 1010 nM
NCI-H3255 (EGFR_L858R); [15]
  IC50: 30 nM
NCI-H3255 (EGFR_L858R); read-out: Cellular IC50 NCI-H3255 (EGFR_L858R)
  IC50: 49 nM
NCI-H441 (EGFR WT); Homo sapiens, NCI-H441, 72 h
  IC50: > 25000 nM
[4]; at 100 nM
  wild-type kinases inhibited for more than 50%: EGFR and RIPK2 were the only wild-type kinases inhibited for more than 50%
  selectivity score S(50): 2.2% and 2.5%
[4]; at 1 μM
  number of other kinases with inhibition of >50%: 9
  selectivity score S(50): 11.9% and 13%

## CC(C)[C@H]1NC(=O)Cc2ccc(Cl)cc2Nc2ncnc3cc(OCCF)c(cc23)OCCCNC1=O [Compound (IIIa)]
[1]
  IC50: 2.7 nM
[2]
  IC50: 77.7 nM
[3]
  IC50: 3.1 nM
T790M (EGFR mutant)
  IC50: 54.7 nM
NCI-H3255 (EGFR_L858R); Homo sapiens, NCI-H3255, 72 h, read-out: mean IC50 on NCI-H3255
  IC50: 6.1 nM
NCI-H441 (EGFR WT); Homo sapiens, NCI-H441, 72 h
  IC50: 34700 nM
NCI-H441 (EGFR WT)
  IC50: > 25000 nM
[4]; at 100 nM
  selectivity score S(50): 0.6%
[4]; at 1 μM
  selectivity score S(50): 2.8%

## CC(C)C1NC(=O)Cc2ccc(Cl)cc2Nc2ncnc3cc(OCCF)c(cc23)OCCCNC1=O (centres unmarked) [Compound (Ia)]
[1]
  IC50: 3 nM and 8 nM and 4.1 nM
[2]
  IC50: 372 nM and 990 nM and 246 nM
[3]
  IC50: 3.2 nM and 5 nM and 5.7 nM
NCI-H3255 (EGFR_L858R); [15]
  IC50: 6 ± 2 nM
NCI-H441 (EGFR WT); Homo sapiens, NCI-H441, 72 h
  IC50: 34700 ± 24000 nM
MCF-7
  IC50: 62100 nM
[5]
  IC50: 5000 ± 1400 nM
[6]
  solubility kinetic: 88 µM (≈ 46.6 µg/mL)
[7]
  microsomal CLint at 3 μM: 7.76 ± 2.53 µL/min/mg
[7]; read-out: human microsomal stability t1/2
  half-life at 3 μM: 2.98 h
[8]
  microsomal CLint at 3 μM: 37.9 ± 1.89 µL/min/mg
[8]; read-out: rat microsomal stability t1/2
  half-life at 3 μM: 0.608 h
WT NCI-H441 tumors
  change of uptake of Compound (I) after competition: 5%
[9]
  decrease of T/M ratios of Compound (I) by competition: 52%
[10]
  change of T/M ratios of Compound (I) after competition: −55%
[11]
  inhibition of EGF-induced EGFR Y1068 phosphorylation: almost full inhibition observed at 1 μM
[12]
  concentration at which full inhibition of constitutively active EGFR was observed: ~100 nM
[13]
  inhibition of constitutively active double mutant EGFR: partially inhibit EGFR activity at 10 μM

## CC(C)[C@H]1NC(=O)Cc2ccc(Cl)cc2Nc2ncnc3cc(OCC[18F])c(cc23)OCCCNC1=O [(III)]
[14]; 5 minutes post injection
  uptake in liver: 0.02±0.09 % ID/g
  uptake in small intestine: 0.35±0.19 % ID/g
[14]; 5 minutes post-injection
  uptake in blood: 0.20±0.002 % ID/g
  uptake in heart: 0.99±0.02 % ID/g
  uptake in kidneys: 4.15±0.79 % ID/g
  uptake in stomach: 1.86±0.73 % ID/g
[14]; 30 minutes post injection
  uptake in liver: 0.71±0.07 % ID/g
[14]; 30 minutes post-injection
  uptake in heart: 0.10±0.02 % ID/g
[14]; 30 minutes timepoint
  uptake in kidneys: 0.25±0.08 % ID/g
  uptake in stomach: 0.26±0.07 % ID/g
[14]; four hours post-injection
  uptake in stomach: 2.58±2.52 % ID/g
[14]; thirty minutes post-injection
  uptake in small intestine: 0.02±0.004 % ID/g
